System: 966289-007-R4-J1-PDC complex spheroid viability
Experiment: Anticancer human tumor 966289-007-R4-J1-PDC patient-derived pancreatic adenocarcinoma cell line growth inhibition [RAS]
Settings: for IC50: curve of first compound; for viability, T/C: stronger effect = lower value; active = viability on the fitted dose curve at most 10% of control; inactive = the rest
How it was run: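 Multi-cell-type spheroids: tumor cells plus HUVEC endothelial cells and mesenchymal stem cells. RAS-pathway inhibitors were combined with targeted agents, each dosed in half-log steps down from clinical Cmax, or from 10 microM when Cmax was unknown.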
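Also: spheroids exposed to agents for one week before readout.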
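For viability, T/C in this document: percent viability relative to DMSO vehicle control wells as 100%.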

CC(C)n1nc(-c2ccc3oc(N)nc3c2)c2c(N)ncnc21 + CCn1c(-c2cc(N3CCN(C)CC3)cnc2C(C)OC)c2c3cc(ccc31)-c1csc(n1)CC(NC(=O)C1CC1C)C(=O)N1CCCC(N1)C(=O)OCC(C)(C)C2
32.5 nM: IC50 (second compound 0.003 µM)
inactive: viability, T/C (second compound 0.000949 µM, first compound 0.000316 µM) 89.3% | viability, T/C (second compound 0.000949 µM, first compound 0.001 µM) 116% | viability, T/C (second compound 0.000949 µM, first compound 0.00316 µM) 133% | viability, T/C (second compound 0.000949 µM, first compound 0.01 µM) 78.5% | viability, T/C (second compound 0.000949 µM, first compound 0.0316 µM) 50.5% | viability, T/C (second compound 0.000949 µM, first compound 0.1 µM) 16.2% | viability, T/C (second compound 0.003 µM, first compound 0.000316 µM) 83.3% | viability, T/C (second compound 0.003 µM, first compound 0.001 µM) 128% | viability, T/C (second compound 0.003 µM, first compound 0.00316 µM) 93.6% | viability, T/C (second compound 0.003 µM, first compound 0.01 µM) 108% | viability, T/C (second compound 0.003 µM, first compound 0.0316 µM) 50.6% | viability, T/C (second compound 0.003 µM, first compound 0.1 µM) 18.5% | viability, T/C (second compound 0.00949 µM, first compound 0.000316 µM) 105% | viability, T/C (second compound 0.00949 µM, first compound 0.001 µM) 108% | viability, T/C (second compound 0.00949 µM, first compound 0.00316 µM) 107% | viability, T/C (second compound 0.00949 µM, first compound 0.01 µM) 108% | viability, T/C (second compound 0.00949 µM, first compound 0.0316 µM) 48.5% | viability, T/C (second compound 0.00949 µM, first compound 0.1 µM) 15.2% | viability, T/C (second compound 0.03 µM, first compound 0.000316 µM) 107% | viability, T/C (second compound 0.03 µM, first compound 0.001 µM) 90.8% | viability, T/C (second compound 0.03 µM, first compound 0.00316 µM) 108% | viability, T/C (second compound 0.03 µM, first compound 0.01 µM) 106% | viability, T/C (second compound 0.03 µM, first compound 0.0316 µM) 38.1% | viability, T/C (second compound 0.03 µM, first compound 0.1 µM) 17.4% | viability, T/C (second compound 0.0949 µM, first compound 0.000316 µM) 98% | viability, T/C (second compound 0.0949 µM, first compound 0.001 µM) 117% | viability, T/C (second compound 0.0949 µM, first compound 0.00316 µM) 106% | viability, T/C (second compound 0.0949 µM, first compound 0.01 µM) 112% | viability, T/C (second compound 0.0949 µM, first compound 0.0316 µM) 38.4% | viability, T/C (second compound 0.0949 µM, first compound 0.1 µM) 14.7% | viability, T/C (second compound 0.3 µM, first compound 0.000316 µM) 91.8% | viability, T/C (second compound 0.3 µM, first compound 0.001 µM) 107% | viability, T/C (second compound 0.3 µM, first compound 0.00316 µM) 112% | viability, T/C (second compound 0.3 µM, first compound 0.01 µM) 87.1% | viability, T/C (second compound 0.3 µM, first compound 0.0316 µM) 41.6% | viability, T/C (second compound 0.3 µM, first compound 0.1 µM) 16.6%
28.1 nM: IC50 (second compound 0.000949 µM)
26.1 nM: IC50 (second compound 0.0949 µM)
30.7 nM: IC50 (second compound 0.00949 µM)
25.4 nM: IC50 (second compound 0.3 µM)
25.6 nM: IC50 (second compound 0.03 µM)
